Values quoted from earlier work as cited in patent US11406718B2, “Methods of detecting pancreobiliary ductal leaks” (CHIRHOCLIN, INC., priority 2012, dated 2022).
No end group written: not given here.

Substance	serious adverse drug reactions (human secretin stimulation)	adverse reaction seen rarely (thousands of patients in pancreobiliary function testing with human secretin)	effect on pancreatic duct diameter (pancreas; in vivo)	effect on sphincter of Oddi (pancreas; in vivo)	effect on pancreatic juice (pancreas; primary action)	allergic reactions (human, in vivo)	dose safely given (human, in vivo)	hemodynamic effects (human, in vivo)	largest dose administered in a study, found safe (human, in vivo)	risk of acute pancreatitis episodes (human, in vivo)
human secretin	There has not been any serious reported adverse drug reaction	flushing of the face with stable vital signs	–	–	–	–	–	–	–	–
secretin (HSDGTFTSELSRLRDSARLQRLLQGLV; ends and bridges not checked; UniProt P63298 33-59, looked up)	–	–	increases the pancreatic duct diameter	causes sphincter of Oddi relaxation	increase the volume and bicarbonate content of pancreatic juice	No allergic reactions have been reported	0.78 µg/kg	No significant hemodynamic effects have been observed	160 µg	not known to increase the risk of acute pancreatitis episodes
